{"source": "patent US7612071B2", "about": "“Compositions and methods employing aminopterin” (Syntrix Biosystems, Inc., priority 2004, dated 2009)", "key": {"[1]": {"conditions": "mice, 4 weekly ip doses (aminopterin 0.03 mg/kg, methotrexate 0.3 mg/kg)"}, "[2]": {"conditions": "prior art; cited from earlier work"}, "[3]": {"assay": "Interpatient coefficient of variation of oral bioavailability", "assay_type": "in vivo", "conditions": "human, plasma, 2 mg/m2; AMT 2 mg/m^2 PO, pediatric and adult patients, n=27", "description": "The term “interpatient coefficient of variation of oral bioavailability” as used herein refers to the coefficient of variation of oral bioavailability in a population of at least two patients, wherein the oral bioavailability is determined at least once for each patient in the population. Specifically, it is the standard deviation of oral bioavailability in the population divided by the interpatient oral bioavailability, expressed as a percent. […] It is sufficient to use a representative number of patients from a particular patient population to establish the interpatient coefficient of variation of oral bioavailability for that population, where at least 5 patients will be required in order to establish the interpatient coefficient of variation of oral bioavailability of a population.\nThe standard deviation of oral bioavailability and interpatient oral bioavailability were determined among 27 matched patients.\nPharmacol. 10(1):36, 1982]."}, "[4]": {"assay": "Storage of aqueous compositions", "assay_type": "physicochemical", "conditions": "parenteral, oral liquid or other aqueous compositions", "source_text": "Because of their ease of administration, tablets and capsules represent the most advantageous oral dosage form in adults, in which case solid pharmaceutical carriers are employed. If desired, tablets may be coated by standard aqueous or nonaqueous techniques. The parenteral dosage form can consist of a sterile solution of the active ingredient, either in its free or salt form, in physiological buffer or sterile water. In addition, parenteral solutions can contain preservatives such as benzalkonium chloride, methyl- or propyl-paraben and chlorobutanol. Suitable pharmaceutical carriers are described in Remington's Pharmaceutical Sciences, a standard reference text in this field. […] Accordingly, such aqueous compositions are best stored desiccated and hydrated within several hours to several days prior to patient administration."}, "[5]": {"assay": "Mean intrapatient coefficient of variation of oral bioavailability", "assay_type": "in vivo", "conditions": "human, plasma, 2 mg/m2; AMT 2 mg/m^2 PO, n=5", "source_text": "The term “intrapatient coefficient of variation of oral bioavailability” as used herein refers to the coefficient of variation of oral bioavailability of two or more antifolate doses given to the same patient. Specifically, it is the standard deviation of oral bioavailability of the two or more antifolate doses in the same patient divided by the intrapatient oral bioavailability, expressed as a percent.\nThe term “mean intrapatient coefficient of variation of oral bioavailability” as used herein refers to the average intrapatient coefficient of variation of oral bioavailability for two or more patients.\nThe intrapatient oral bioavailability and standard deviation of the oral bioavailability were determined among the consecutive doses in a given patient, and the intrapatient coefficient of variation of oral bioavailability calculated for each patient by dividing the standard deviation by the intrapatient oral bioavailability."}, "[6]": {"test_system": "T-lineage acute lymphoblastic leukemia (ALL)", "conditions": "for Therapeutic Index / Toxicity Component: Antifolate dose with same toxicity as MTX at 100 mg/m^2/wk: T-lineage ALL; for Therapeutic Component: Antifolate dose / Therapeutic Component: Percentage effective (complete remission or stable disease): peripheral blasts and bone marrow infiltrates in T-lineage ALL, n=7; for Therapeutic Component: Percentage effective (complete remission or stable disease): AMT 4 mg/m^2/wk, MTX >5000 mg/m^2/wk in the same patients", "description": "Specifically, a clinical trial was performed in human adult and pediatric patients having T-lineage acute lymphoblastic leukemia (ALL) that was refractory to therapy or that had relapsed (see Table IV). The disease manifestations that were monitored were peripheral blasts and bone marrow infiltrates. The toxicity manifestations that were monitored were mucositis, neutropenia, thrombocytopenia and myelosuppression."}, "[7]": {"assay": "Potency relative to methotrexate", "conditions": "therapeutically effective amount for the same level of efficacy"}, "[8]": {"assay": "Interpatient oral bioavailability in patients (oral vs intravenous AUC, matched)", "assay_type": "in vivo", "conditions": "human, plasma", "description": "The term “interpatient oral bioavailability” as used herein refers to the mean oral bioavailability in a population of at least two patients, wherein the oral bioavailability is determined at least once for each patient in the population. The interpatient oral bioavailability may be calculated by dividing the mean population AUC after oral dosing by the mean population AUC after intravenous dosing, wherein the oral and intravenous doses are identical, and expressing the ratio as a percent. In a preferred method, the interpatient oral bioavailability is calculated using matched samples by averaging the oral bioavailabilities obtained for each patient. More specifically, the oral bioavailability is obtained for each patient by dividing the AUC after oral dosing the patient by the AUC after intravenous dosing the same patient with the same dose of antifolate (i.e. the oral and intravenous AUC in each patient are matched and the patients are said to be matched). The interpatient oral bioavailability based on these matched patients is then simply the mean population oral bioavailability expressed as a percent. […] It is sufficient to use a representative number of patients from a particular patient population to establish an interpatient oral bioavailability for that population, where at least 5 patients will be required in order to establish an interpatient oral bioavailability of a population.\nThe term “oral bioavailability” as used herein refers to the fraction of an antifolate dose given orally that is absorbed into the plasma after a single administration to a patient. A preferred method for determining the oral bioavailability is by dividing the AUC of an antifolate dose given orally by the AUC of the same antifolate dose given intravenously to the same patient, and expressing the ratio as a percent. […]"}, "[9]": {"molecular_target": "T1, partially purified chicken liver DHFR (Gallus gallus, UniProt P00378)", "T1 sequence (P00378 1-189)": "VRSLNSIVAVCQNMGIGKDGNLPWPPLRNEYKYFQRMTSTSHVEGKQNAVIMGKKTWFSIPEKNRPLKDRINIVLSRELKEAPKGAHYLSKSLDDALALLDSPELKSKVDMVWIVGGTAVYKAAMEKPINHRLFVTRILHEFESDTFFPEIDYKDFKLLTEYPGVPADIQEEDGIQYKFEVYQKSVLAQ", "assay": "Radioligand DHFR binding assay", "conditions": "aminopterin compared with methotrexate"}}, "note": "Where two headings read alike, the source gives them in different places.", "data": [{"smiles": "Nc1nc(N)c2nc(CNc3ccc(C(=O)N[C@@H](CCC(=O)O)C(=O)O)cc3)cnc2n1", "note": "[AMT]", "values": [{"measurement": "antifolate content in brain parenchyma, aminopterin arm vs methotrexate arm", "setting": "[1]; days 1, 12 and 22", "value": "significantly less antifolate"}, {"measurement": "antifolate content in liver, aminopterin vs methotrexate", "setting": "[1]; days 1 and 22 after last dose", "value": "no different"}, {"measurement": "potency relative to methotrexate", "setting": "[2]", "value": "at least 10 times"}, {"measurement": "Interpatient coefficient of variation of oral bioavailability", "setting": "[3]", "value": 42, "unit": "%"}, {"measurement": "stability of aqueous compositions (conversion of aminopterin to folic acid)", "setting": "[4]", "value": "accumulate folic acid to undesirable levels over the course of six months of storage"}, {"measurement": "Mean intrapatient coefficient of variation of oral bioavailability", "setting": "[5]", "value": 25, "unit": "%"}, {"measurement": "Therapeutic Index", "setting": "[6]; Mucositis vs peripheral blasts/bone marrow infiltrates", "value": 1}, {"measurement": "Toxicity Component: Antifolate dose with same toxicity as MTX at 100 mg/m^2/wk", "setting": "[6]; Mucositis", "value": 4, "unit": "mg/m^2/wk"}, {"measurement": "Therapeutic Index", "setting": "[6]; Myelosuppression", "value": 1}, {"measurement": "Toxicity Component: Antifolate dose with same toxicity as MTX at 100 mg/m^2/wk", "setting": "[6]; Myelosuppression", "value": 4, "unit": "mg/m^2/wk"}, {"measurement": "Therapeutic Index", "setting": "[6]; Neutropenia", "value": 1}, {"measurement": "Toxicity Component: Antifolate dose with same toxicity as MTX at 100 mg/m^2/wk", "setting": "[6]; Neutropenia", "value": 4, "unit": "mg/m^2/wk"}, {"measurement": "Therapeutic Index", "setting": "[6]; Thrombocytopenia", "value": 1}, {"measurement": "Toxicity Component: Antifolate dose with same toxicity as MTX at 100 mg/m^2/wk", "setting": "[6]; Thrombocytopenia", "value": 4, "unit": "mg/m^2/wk"}, {"measurement": "Therapeutic Component: Antifolate dose", "setting": "[6]", "value": "4 mg/m^2/wk:"}, {"measurement": "Therapeutic Component: Percentage effective (complete remission or stable disease)", "setting": "[6]", "value": 43, "unit": "% complete"}, {"measurement": "Therapeutic Component: Percentage effective (complete remission or stable disease)", "setting": "[6]; listed as aminopterin", "value": 43, "unit": "%"}, {"measurement": "Therapeutic Component: Antifolate dose", "setting": "[6]; listed as aminopterin", "value": 4, "unit": "mg/m^2/wk"}, {"measurement": "Therapeutic index of aminopterin relative to corresponding therapeutic index of methotrexate", "setting": "[6]; peripheral blasts in T-lineage ALL and mucositis", "value": "greater than 50 fold"}, {"measurement": "potency relative to methotrexate", "setting": "[7]", "value": "about 25 times"}, {"measurement": "bioavailability", "setting": "[8]; 2 mg/m2, AMT 2 mg/m^2, pediatric patients (age 0-21), 15 matched patients, read-out: Interpatient oral bioavailability (%)", "value": 94, "unit": "%"}, {"measurement": "bioavailability", "setting": "[8]; 2 mg/m2, AMT 2 mg/m^2, pediatric patients, n=15, read-out: Maximum (%) oral bioavailability", "value": 165, "unit": "%"}, {"measurement": "bioavailability", "setting": "[8]; 2 mg/m2, AMT 2 mg/m^2, pediatric patients, n=15, read-out: Minimum (%) oral bioavailability", "value": 45, "unit": "%"}, {"measurement": "displacement of tritiated methotrexate and binding to DHFR", "setting": "[9]", "value": "equivalent"}]}]}
